Results reported in patent publication US12485107B2, “Methods for the prevention or treatment of cytokine storm” (Beth Israel Deaconess Medical Center, Inc., priority 2019, dated 2025).
“Also recorded” adds a separate entry of the source.

Experiments:
[1] = test system: RAW264.7 murine macrophages; assay: Cytokine array/ELISA of conditioned medium of RAW264.7 macrophages stimulated with chemotherapy-generated ID8 debris; assay type: cell-based
Procedure: Macrophages were treated with vehicle or PTUPB (1-10 μM) in Dulbecco's phosphate-buffered saline containing calcium and magnesium (PBS^+/+) (Lonza, Basel, Switzerland) and incubated for 2 hours at 37° C. Carboplatin- or paclitaxel-generated ID8 or OVCAR5 debris was added to murine or human macrophages, respectively, at a 1:4 (macrophage:dead cell body) ratio and incubated for 1 hour at 37° C. Next, plates were aspirated, macrophages were re-fed with serum-free medium, and incubated overnight at 37° C. The conditioned medium was collected the next day, centrifuged at 1100 rpm for 5 minutes to remove particulates, and stored at −20° C. until further analysis via cytokine array, ELISA, or LC-MS/MS. Collection of RAW264.7 murine macrophage conditioned medium was repeated using debris from three distinct collections for a total of three separate experiments. Collection of human monocyte-derived macrophage conditioned medium was repeated using peripheral blood monocytes from three different human donors and debris from three distinct collections for a total of three separate experiments. Collection of primary murine peritoneal macrophages was repeated using macrophages pooled from 5-10 C57BL/6 female mice and debris from two distinct collections for a total of two separate experiments.
(§1) In vivo cytokines (serum or ascites) or cytokines in conditioned medium of macrophages treated with PTUPB and exposed to paclitaxel- or carboplatin-generated debris, were assessed according to the protocols provided by Proteome Profiler Mouse Cytokine Array Kit Panel A, Proteome Profiler Mouse Angiogenesis Array Kit, or Proteome Profiler Human Cytokine Array Kit Panel A (R&D Systems, Inc., Minneapolis, MN). Array control allows for comparison between membranes. […]
(§2) For quantitation of pro-inflammatory cytokines, serum or conditioned medium from macrophages treated with PTUPB and stimulated with paclitaxel-generated ID8 debris or from paclitaxel-generated ID8 debris alone without macrophages was used according to the protocols provided in each ELISA kit (R&D Systems, Minneapolis, MN).

[2] = test system: primary murine peritoneal macrophages; assay: Cytokine array/ELISA of conditioned medium of primary murine peritoneal macrophages stimulated with paclitaxel-generated ID8 debris; assay type: cell-based; settings: PTUPB 5 or 10 μM, 2 hours
Procedure: Macrophages were treated with vehicle or PTUPB (1-10 μM) in Dulbecco's phosphate-buffered saline containing calcium and magnesium (PBS^+/+) (Lonza, Basel, Switzerland) and incubated for 2 hours at 37° C. Carboplatin- or paclitaxel-generated ID8 or OVCAR5 debris was added to murine or human macrophages, respectively, at a 1:4 (macrophage:dead cell body) ratio and incubated for 1 hour at 37° C. Next, plates were aspirated, macrophages were re-fed with serum-free medium, and incubated overnight at 37° C. […]
as §1, with “MN).” for “MN). Array control allows for comparison between membranes.”
as §2, with “MN). […]” for “MN).”

[3] = test system: debris-stimulated intraperitoneal ovarian tumors (ID8); assay: Debris-stimulated intraperitoneal ID8 ovarian tumor model, survival; assay type: in vivo, mice
Procedure: All animal studies were reviewed and approved by the Animal Care and Use Committee of Beth Israel Deaconess Medical Center, Boston, MA Mice were housed at a maximum of 5 animals per cage in a pathogen-free facility with unlimited access to sterile water and chow. Daily welfare evaluations and animal sacrifices were carried out according to the Committee guidelines. For murine injections, chemotherapy-generated murine (ID8) or human (OVCAR5) ovarian tumor cell debris was combined with ID8 or OVCAR5 living cells at equal volumes in PBS. Six-week-old female C57BL/6 (The Jackson Laboratory, Bar Harbor, ME) or SCID mice (Charles River, Cambridge, MA) were injected subcutaneously or intraperitoneally with 100 μL/mouse of ID8 or OVCAR5 cells, respectively. For orthotopic injections, 6-week-old C57BL/6 female mice were injected with 20 μL/mouse of matrigel (Becton Dickinson and Company, Franklin Lakes, NJ) mixed with paclitaxel-generated ID8 debris and/or ID8 living cells at a 1:1 (matrigel:cells) ratio directly into the right ovarian bursa. Systemic treatment with PTUPB (30 mg/kg/day) or control was administered via mini-osmotic pumps (Alzet Inc., Cupertino, CA) implanted into the peritoneum of the mice 4 weeks post-injection. Treatment ended 28 days after implantation of the pumps. Systemic chemotherapy with carboplatin (10 mg/kg q 3 days) or control that were initiated on the day of tumor cell injection.
Statistical analyses for in vitro studies were performed using Student's two-tailed unpaired t-test. Data are represented as mean±S.E.M. with p-values less than 0.05 considered statistically significant. For in vivo studies, the Kaplan-Meier product-limit method and log-rank testing were used to evaluate survival differences over time after the day of tumor cell injection between mice co-injected with tumor cell debris and living cells vs. living cells alone. Data are represented as percent survival with p-values less than 0.01 considered statistically significant.

[4] = test system: RAW264.7 murine macrophages; assay: Cytokine arrays of RAW264.7 macrophages stimulated with gemcitabine-generated PancOH7 debris; assay type: cell-based; settings: 5 μM, 2 hours pre-treatment
Procedure: (A) Inflammatory and (B) angiogenic cytokine array of RAW264.7 murine macrophage conditioned media co-cultured with chemotherapy (gemcitabine)-generated murine pancreatic (PancOH7) tumor cell debris and pre-treated with vehicle or PTUPB (5 μM, 2 hours).
Inflammatory (FIG. 15A) and angiogenic (FIG. 15B) cytokine arrays of conditioned media from RAW264.7 macrophages treated with vehicle or PTUPB (5 uM) for 2 hours stimulated with gemcitabine-generated PancOH7 debris are shown in FIGS. 15A and 15B. “Cytokine storm” released by debris-stimulated macrophages is prevented by the dual COX-2/sEH inhibitor PTUPB.

[5] = test system: RAW264.7 murine macrophages; assay type: cell-based; settings: 5 μM, 2 hours pre-treatment
[6] = test system: RAW264.7 murine macrophages; assay: Inflammatory cytokine array of RAW264.7 macrophages stimulated with ethanol-generated Hepa 1-6 debris; assay type: cell-based; settings: 5 μM (combination 5 μM each), 2 hours pre-treatment
Procedure: Inflammatory cytokine array of RAW264.7 murine macrophage conditioned media co-cultured with ethanol-generated murine liver (Hepa 1-6) tumor cell debris and pre-treated for 2 hours with vehicle, PTUPB (5 μM), Ome-21i (5 μM), or Ome-21i+Celecoxib (5 μM each).
An inflammatory cytokine array of conditioned media from RAW264.7 macrophages treated with vehicle, PTUPB (5 μM), Ome-21i (5 μM), or Ome-21i (5 μM) and Celecoxib (5 μM) for 2 hours stimulated with ethanol-generated Hepa 1-6 debris is shown in FIG. 17. “Cytokine storm” released by debris-stimulated macrophages is prevented by the dual COX-2/sEH inhibitor PTUPB or sEH inhibitor Ome-21i and COX-2 inhibitor celecoxib.

[7] = test system: RAW 264.7 murine macrophages; assay: Inflammatory cytokine array of RAW264.7 macrophages stimulated with ethanol-generated MS-1 endothelial cell debris; assay type: cell-based; settings: 5 μM (combination 2.5 μM each), 2 hours pre-treatment

NS(=O)(=O)c1ccc(-n2nc(CCCNC(=O)Nc3ccc(C(F)(F)F)cc3)cc2-c2ccccc2)cc1 [PTUPB, 4-(5-phenyl-3-{3-[3-(4-trifluoromethyl-phenyl)-ureido]propyl}-pyrazol-1-yl) benzenesulfonamide]
debris-stimulated macrophage release of IL-1ra ([1]; FIGS. 4A, 4C, 5D, ID8 debris): suppressed debris-stimulated macrophage release of IL-1ra | pro-inflammatory cytokine surge (TNFα, MIP-2/CXCL2, MIP-1β/CCL4, CCL2/MCP-1, sICAM-1/CD54, G-CSF) by debris-stimulated macrophages ([1]; PTUPB 5 μM, 2 hours, paclitaxel- or carboplatin-generated ID8 debris): prevented the cytokine surge | angiogenic cytokine surge (serpin E1/PAI-1, osteopontin, MMP9, CCL2/MCP-1) by debris-stimulated macrophages ([1]; PTUPB 2.5 or 5 μM, 2 hours, paclitaxel- or carboplatin-generated ID8 debris): suppressed an angiogenic cytokine surge | debris-stimulated cytokine surge by primary murine peritoneal macrophages [2]: inhibited a debris-stimulated cytokine surge | sustained survival ([3]; PTUPB 30 mg/kg/day by mini-osmotic pump from 4 weeks post-injection, paclitaxel- or carboplatin-generated ID8 debris + ID8 living cells i.p.): over 120 days post-injection | survival compared to control (Kaplan-Meier, log-rank), paclitaxel-generated debris i.p. model ([3]; PTUPB 30 mg/kg/day, log-rank test=9.70, p=0.0018): significantly prolonged survival | survival compared to control (Kaplan-Meier, log-rank), carboplatin-generated debris i.p. model ([3]; PTUPB 30 mg/kg/day, log-rank test=9.85, p=0.0017): significantly prolonged survival | cytokine storm (inflammatory and angiogenic arrays) released by macrophages stimulated with gemcitabine-generated PancOH7 debris [4]: prevented | cytokine storm released by macrophages stimulated with aflatoxin B1-generated Hepa 1-6 debris [5]: prevents the aflatoxin B1-induced cytokine storm; also recorded: able to inhibit; also recorded: prevented | cytokine storm released by macrophages stimulated with ethanol-generated Hepa 1-6 debris [6]: able to inhibit; also recorded: prevented | cytokine storm by ethanol-generated endothelial cell (MS-1) debris [7]: inhibited
